Assay results as given in patent US20100062078A1, “PHARMACEUTICAL COMPOSITION FOR TREATING CANCER AND THE SIGNALING PATHWAY THEREOF” (priority 2008, published 2010).

Assays:
HeLa = experiment: Cell cycle distribution; assay type: cell-based, human
[1] = system: LNCap prostate cancer cells; experiment: Nude mice xenograft model, tumor volume; assay type: in vivo; details: 5 weeks
Experimental: (§1) MDAH-2774 human ovarian cancer cells of 2×10^6 (or LNCap prostate cancer cells of 1×10^6) in 0.1 ml PBS were injected subcutaneously at the right flank of 6-week-old female nude mice (Foxnlun/Foxulun). When tumors became visible (approximately 3×3 mm in size), the mice were randomly grouped and treated intraperitoneally with protoapigenone or vehicle every other day. […] Tumor size and body weight were measured twice a week using calipers, and their tumor volumes were calculated according to a standard formula: width^2×length/2. After treatment with protoapigenone for 5 weeks, the mice xenografted with LNCap cells were sacrificed by deep anesthesia, and the blood sampling by cardiac aspiration was done immediately after anesthesia. Complete blood count of the nude mice blood was determined by Sysmex XE-2100 (TOA Medical Electronics, Kobe, Japan), and the plasma blood urea nitrogen (BUN), creatine (Cr), asparatate aminotransferase (AST), and alanine aminotransferase (ALT) levels were determined by Beckman LX20 (Beckman-Coulter, U.S.A.)

[2] = system: MDAH-2774 human ovarian cancer cells; experiment: Nude mice xenograft model, tumor growth; assay type: in vivo; details: low dose (0.069 μM/g) and high dose (0.69 μM/g) i.p. every other day, 7-week treatment
Experimental: as §1

RT4 = experiment: XTT cell proliferation assay (growth inhibition); assay type: cell-based, human
Experimental: (§2) Cells were seeded at 7×10^3 per well in 96-well culture plates before treatment with different concentrations of protoapigenone for 12, 24 and/or 48 hours. Next, the cytotoxicity of protoapigenone was determined using XTT cell proliferation assay (Sigma, St. Louis, Mo.). The absorbance of wavelength at 490 nm (OD490) and 650 nm (OD650) were determined respectively by enzyme-linked immunosorbent assay (ELISA) reader, and 50% of inhibitory concentration (IC50) was calculated by the value of OD490-OD650. In addition, in order to evaluate the long-term effect, the cells were treated with different concentration of protoapigenone for 3 hours, then were incubated with fresh medium for 14 days so as to form colonies. Finally, the cells were stained with crystal violet and were observed under the microscope.

T24 = experiment: XTT cell proliferation assay (growth inhibition); assay type: cell-based, human
Experimental: as §2

LNCap [3] = experiment: XTT cell proliferation assay (growth inhibition); assay type: cell-based, human; details: Homo sapiens; LNCap, 48-hour treatment
Experimental: as §2

Hep 3B = experiment: XTT cell proliferation assay (growth inhibition); assay type: cell-based, human
Experimental: as §2

[4] = Body weight, complete blood count and biochemical profile of LNCap-xenografted nude mice; assay type: in vivo; details: for BUN / Creatine / Got (glutamic-oxaloacetic transaminase) / Gpt (glutamic-pyruvic transaminase) / MCV (mean corpuscular volume) / RBC / WBC / Body weight: LNCap xenograft
Experimental: as §1

SKOV3 = experiment: Cell cycle and sub-G1 analysis (PI flow cytometry); assay type: cell-based, human; details: SKOV3, 24 hours
Experimental: (§3) The ovarian cancer cells and the prostate cancer cells respectively were treated with protoapigenone at different concentrations (0, 2.5, 5 and 10 μM) for 24 hours and 6 hours (or 12 hours). These cells were harvested by trypsin and fixed with 70% ethanol for 1 hour, washed with phosphate buffered saline (PBS) twice, and resuspended in propidium iodide (PI)/RNase A solution for 30 minutes. In accordance with the mechanism of DNA stained with propidium iodide, the cell cycle and sub-G1 distribution were detected by the FACScan flow cytometry (Becton Dickinson, San Jose, Calif.), and data analysis was done with CellQuest software (BD Bioscience).

MDAH-2774 [5] = experiment: Cell cycle and sub-G1 analysis (PI flow cytometry); assay type: cell-based, human; details: MDAH-2774, 24 hours
Experimental: as §3

LNCap [6] = experiment: TUNEL assay; assay type: cell-based, human; details: LNCap, 2.5, 5 and 10 μM, 12 or 24 hours
Experimental: TUNEL assay is performed to detect whether cellular DNA is fragmented. The prostate cancer cells were treated with protoapigenone at various concentrations (2.5, 5 and 10 μM) for 12 or 24 hours, then were stained with TUNEL using the DeadEnd Colorimetric TUNEL system (Promega, Madison, Wis.). In brief, the prostate cancer cells were fixed with 4% paraformaldehyde for 30 minutes after protoapigenone treatment. Next, the fixed cells were incubated with digoxigenin-conjugated dUTP and nucleotide mixture in a recombinant terminal deoxynucleotide transferase-catalyzed reaction in the humidified atmosphere at 37° C. Subsequently, they were immersed in the stop buffer for 15 minutes at 37° C. The Cells were washed with PBS, then were incubated in DAB solutions for 15 minutes in dark. The stained cells were observed under the microscope. The percentage of TUNEL-positive cells were counted in 1000 cells, and the apoptosis index in the later period was calculated.

MDAH-2774 [7] = experiment: XTT cell proliferation assay (cytotoxicity); assay type: cell-based, human; details: Homo sapiens
Experimental: as §2

For `O=C1C=CC(O)(c2cc(=O)c3c(O)cc(O)cc3o2)C=C1` [protoapigenone], the cell cycle distribution (HeLa) was “arrested at G2/M phase”, the average tumor size ([1]; high dose (3.7 μM/g body weight i.p. every other day)) was 1153.0±218.7 mm^3 and the average tumor size ([1]; low dose (0.37 μM/g body weight i.p. every other day)) was 1876.9±428.6 mm^3. For the same molecule, the “tumor growth of MDAH-2774 cells vs PBS control” value [2] was “significantly suppressed”, the “survival rate of RT4 cells” value (RT4; 4 μM and 8 μM, 24 and 48 hours) was “decreased” and the IC50 (RT4; RT-4, human urinary bladder transitional cell papilloma RT4) was 5.11 ± 3.25 µM. For the same molecule, the “survival rate of RT4 cells” value (RT4; low concentrations (0.5, 1 and 2 μM)) was “over 100%”, the IC50 (T24; Homo sapiens, T-24, bladder cancer T24) was 5.52 ± 0.598 µM and the growth inhibition (T24; T24, various concentrations) was “dose-dependent and time-dependent”. The IC50 (LNCap [3]) was 3.7 ± 0.2 µM, the growth inhibition (Hep 3B; Hep 3B, various concentrations) was “dose-dependent and time-dependent” and the IC50 (Hep 3B; Hep3B, human hepatocellular carcinoma Hep 3B) was 1.86 µM. For the same molecule, the BUN ([4]; high dose, 5 weeks) was 24.8 ± 9.0 mg/dL, the Creatine ([4]; high dose, 5 weeks) was 0.48 ± 0.10 mg/dL and the “Got (glutamic-oxaloacetic transaminase)” value ([4]; high dose, 5 weeks) was 630.7 ± 165.5 U/L. The “Gpt (glutamic-pyruvic transaminase)” value ([4]; high dose, 5 weeks) was 137.3 ± 55.8 U/L, the “MCV (mean corpuscular volume)” value ([4]; high dose, 5 weeks) was 47.7 ± 0.9 fL and the RBC ([4]; high dose, 5 weeks) was 7.3 ± 0.7 10^6/µL. For the same molecule, the WBC ([4]; high dose, 5 weeks) was 2.7 ± 1.0 10 × 3/μl, the Body weight ([4]; high dose, after treatment (5 weeks)) was 13.5 ± 0.6 g and the Body weight ([4]; high dose, before treatment) was 11.5 ± 0.8 g. For the same molecule, the BUN ([4]; low dose, 5 weeks) was 23.9 ± 3.2 mg/dL, the Creatine ([4]; low dose, 5 weeks) was 0.43 ± 0.05 mg/dL and the “Got (glutamic-oxaloacetic transaminase)” value ([4]; low dose, 5 weeks) was 520.5 ± 169.9 U/L. The “Gpt (glutamic-pyruvic transaminase)” value ([4]; low dose, 5 weeks) was 130.0 ± 119.9 U/L, the “MCV (mean corpuscular volume)” value ([4]; low dose, 5 weeks) was 46.8 ± 0.8 fL and the RBC ([4]; low dose, 5 weeks) was 7.3 ± 0.6 10^6/µL. The WBC ([4]; low dose, 5 weeks) was 2.3 ± 0.7 10 × 3/μl, the Body weight ([4]; low dose, after treatment (5 weeks)) was 13.6 ± 1.2 g and the Body weight ([4]; low dose, before treatment) was 11.8 ± 0.4 g. The “body weight, control vs protoapigenone-treated group” value ([4]; LNCap-xenografted nude mice, 5 weeks) was “no significant difference”, the “impairment of hematopoiesis, liver function, or renal function” value ([4]; LNCap-xenografted nude mice, intraperitoneal injection, 5 weeks) was “No significant impairment” and the “apoptotic sub-G1 peak” value (SKOV3) was “increases the apoptotic sub-G1 peak”. The cell cycle distribution (SKOV3; various concentrations) was “enter into S and G2/M phases”, the “apoptotic sub-G1 peak” value (MDAH-2774 [5]) was “increases the apoptotic sub-G1 peak” and the cell cycle distribution (MDAH-2774 [5]; various concentrations) was “enter into S and G2/M phases”. The “ratio of TUNEL positive cells” value (LNCap [6]) was “increased along with time and the increased protoapigenone concentrations”, the inhibition at 1 µM (MDAH-2774 [7]; MDAH-2774, 1 μM protoapigenone, read-out: inhibition of cell growth) was 25% and the inhibition at 2.5 µM (MDAH-2774 [7]; MDAH-2774, 2.5 μM protoapigenone, read-out: inhibition of cell growth) was 53.4%. It also gave an IC50 (MDAH-2774 [7]; ovarian cancer cell line MDAH-2774, means ± SD of three independent experiments) of 0.69 ± 0.92 µM.
